Assay: Hepatocyte assay: concentration versus time data of parent compound, fitted for Km, Vmax and Kd
Method: Traditionally, initial experiments were performed to get a “ball park” number around the Km, then additional studies performed “near” that concentration. A data analyst, or fitting expert, then took the data and determined the Km and Vmax. Some expertise is required to be able to interpret the initial studies and then to fit the data to determine Km. […] Especially preferred concentrations are 0.4, 2, 10, 50, 125 and 250 μM.
Equation 1 is the equation that incorporates transport and makes the assumption that the changes in concentration with time cannot be fully explained using the Michaelis-Menten equation alone. Kd·C is the transport term where Kd is the first order rate constant and C is the concentration outside of the hepatocyte or cell. dC/dt is the rate of metabolism, Vmax is the maximum possible rate of metabolism and Km is the Michaelis-Menten constant defined as concentration where dC/dt equals ½*Vmax. [formula]
The best fit lines and simulated data are obtained using a minimization algorithm capable of determining Vmax, Km, and Kd values that provide minimum deviation of the simulated data from the experimental data. In this example the minimization algorithms were completed using the computer based application, Kinetica®.
Briefly, the minimization algorithms uses the main function “mrqmin” that relies on several other functions to complete the analysis. This function assignees different initial conditions to fitted variables and picks the best set of results based on the minimal value of the computed “sum of squares”. Some statistical information can be collected in this routine as well. The “mrqmin” function performs one iteration of Marquardt method. Algorithmically, it is the same as listed in Numerical Recipes with modifications to parameter input, output and exchanges, and some modifications to intermediate computations. The “mrqmin” calls “mrqcof” function for some intermediate computations. […]
Goodness of fit is determined by evaluation of % CV, and percent unchanged parent compounds remaining at 240 minutes at 0.4 μM.

Oc1ccc2c3c1O[C@H]1[C@@H](O)CC[C@@]4(O)[C@@H](C2)N(CC2CCC2)CC[C@]314 [Nalbuphine]
Km (Initial concentrations, hepatocyte assay): 12.2 µM
Km (Std (standardized) concentrations, hepatocyte assay): 10.9 µM
Km (determined by non-linear fitting and minimization, compound-specific initial concentrations (Table 9)): 10 to 50 µM
